Consider 1 molecule from patent US8946201B2, “Methods for inhibiting TGF-β” (Saint Louis University, priority 2007, dated 2015).

The subject of one assay is TβR-II. As to the kind of experiment: TGF-β1-induced degradation of TβR-II, Western blot. It counts as cell-based. On the procedure: (E) Cells were treated with several concentrations of cholesterol (a,b) or LDL (c,d) as indicated in the presence and absence of 1% β-CD at 37° C. for 1 hr and further incubated with 50 pM TGF-β for 1 hr. The cell lysates were then subjected to 7.5% SDS-PAGE and Western blot analysis using antibodies to TβR-II and α-actin (a,c). The relative intensities of TβR-II and α-actin on the blot were quantified by densitometry (b,d). The ratio of the relative intensities of TβR-II and α-actin in cells treated without TGF-β1 was taken as the 100% level of TβR-II.
(F, G) Cells were treated with or without 1 μM lovastatin/fluvastatin or nystatin (25 μg/ml)/cholesterol (50 μg/ml) at 37° C. for 16 hr or 1 hr, respectively. The treated cells were directly analyzed by sucrose density gradient ultracentrifugation analysis (F) or further incubated with 50 pM TGF-β at 37° C. for several time periods as indicated (G). Western blot analysis of the sucrose density gradient fractions (F) and of TGF-β1-treated cell lysates (G) was performed using antibody to TβR-II. The relative levels of TβR-II and α-actin were quantified by densitometry. Fractions ⅘ and 7 represent lipid raft/caveolae and non-lipid raft fractions, respectively. […] The quantitative data from three independent analyses is shown (G, bottom). […]
(§1) Cells grown to near confluence on 12-well cluster dishes were treated with cholesterol or LDL in serum-free DMEM (vol.=0.5 ml/well) at 37° C. for 1 hr. […] Treated cells were lysed and cell lysates were analyzed by 7.5% SDS-PAGE and Western blot analysis using anti-Smad2, anti-P-Smad2, anti-caveolin-1, anti-TβR-I (alk5) or anti-TβR-II antibodies as described previously (30). […]
Lipid raft/caveolae-mediated endocytosis of receptor-bound TGF-β results in rapid degradation of TGF-β1 and suppression of TGF-β responsiveness. […] To test this, we analyzed the lipid raft/caveolae and non-lipid raft localization of TβR-I and TβR-II in the plasma membrane of cells treated with or without cholesterol (50 μg/ml) using sucrose density gradient ultracentrifugation analysis. […]
(Immunoblotting shows a protein as a band on a membrane.)

The test system of assay [1] is Smad2 phosphorylation stimulated by TGF-β1. As to the kind of experiment: TGF-β1-stimulated Smad2 phosphorylation, Western blot, BAEC. Type of assay: cell-based, bovine. To be noted: 25 μg/ml, 37° C. 1 hr, then 50 pM TGF-β1 0.5 hr. On the procedure: Cells were treated with increasing concentrations of cholesterol, as indicated (A, B, C), 50 μg protein/ml LDL (D), 5 μg protein/ml VLDL (D) or 50 μg/ml cholesterol (E) at 37° C. for 1 hr and then further incubated with 50 pM TGF-β1 for 30 min. Phosphorylated Smad2 (P-Smad2) and total Smad2 in the cell lysates were analyzed by 7.5% SDS-PAGE and followed by immunoblot analysis using anti-P-Smad2 and anti-Smad2 antibodies. A representative of a total of 3 analyses is shown (top). The quantitative analysis of the immunoblots is shown (bottom). […] Smad2 nuclear translocation was analyzed by indirect immunofluorescent staining using P-Smad2 antibody and rhodamine-labeled 2nd antibody (E). Rhodamine fluorescence represents P-Smad2 staining (a,b,c) whereas the nuclei were stained by DAPI staining (d,e,f).
as §1
It has been reported that TGF-β responsiveness is determined by TGF-β partitioning between lipid raft/caveolae-mediated and clathrin-mediated endocytosis. […]

SMILES strings stand for the structures.

Turning to `CC(C)CCC[C@@H](C)[C@H]1CC[C@H]2[C@@H]3CC=C4C[C@@H](O)CC[C@]4(C)[C@H]3CC[C@]12C` [cholesterol], in the assay with TβR-II (cholesterol 10 μg/ml or LDL 15 μg protein/ml, without TGF-β1), the “TβR-II degradation, treatment alone” value is on record as “did not induce”. Moreover, the “enhancement of TGF-β1-induced degradation of TβR-II” value in the assay with TβR-II (cholesterol 10 μg/ml, LDL 15 μg protein/ml, 1 hr, then 50 pM TGF-β 1 hr) worked out at 70%. Moreover, the “suppression of Smad2 phosphorylation stimulated by TGF-β1” value in assay [1] is 90%.
